Values after ≈ are worked out from the molar mass of the structure shown.
Legend:
Assay in all cases: Antibacterial activity, MIC
Format in all cases: cell-based
[1] = test system: Proteus vulgaris ATCC 6059; details: ATCC6059, ATCC 6059, agar two-fold dilution, 37° C., 20 hours, read-out: MIC
In short: (§1)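 Agar two-fold dilution method: compound serially diluted two-fold in Mueller-Hinton agar, spotted with 2 μl of a 10^7 CFU/ml inoculum of each standard strain, then incubated at 37 °C for 20 h.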

[2] = test system: Morganella morganii ATCC 8076h; details: ATCC8076H, agar two-fold dilution, 37° C., 20 hours
In short: as §1

[3] = test system: Pseudomonas aeruginosa ATCC 10145; details: ATCC10145, ATCC 10145, agar two-fold dilution, 37° C., 20 hours, read-out: MIC
In short: as §1

[4] = test system: Providencia rettgeri ATCC 9250; details: ATCC9250, agar two-fold dilution, 37° C., 20 hours
In short: as §1

[5] = test system: Escherichia coli ATCC 10536; details: ATCC10536, agar two-fold dilution, 37° C., 20 hours
In short: as §1

[6] = test system: Citrobacter freundii ATCC 8090; details: ATCC8090, ATCC 8090, agar two-fold dilution, 37° C., 20 hours, read-out: MIC
In short: as §1

[7] = test system: Streptococcus faecalis ATCC 29212; details: Enterococcus faecalis, ATCC29212; ATCC 29212; agar two-fold dilution, 37° C., 20 hours; read-out: MIC
In short: as §1

[8] = test system: Shigella flexneri ATCC 11836; details: ATCC11836, agar two-fold dilution, 37° C., 20 hours
In short: as §1

[9] = test system: Serratia marcescens ATCC 27117; details: ATCC27117, ATCC 27117, agar two-fold dilution, 37° C., 20 hours, read-out: MIC
In short: as §1

[10] = test system: Proteus mirabilis ATCC 25933; details: ATCC25933, ATCC 25933, agar two-fold dilution, 37° C., 20 hours, read-out: MIC
In short: as §1

[11] = test system: Klebsiella pneumoniae ATCC 10031; details: ATCC10031, ATCC 10031, agar two-fold dilution, 37° C., 20 hours, read-out: MIC
In short: as §1

[12] = test system: Staphylococcus aureus ATCC 10537; details: ATCC10537, ATCC 10537, agar two-fold dilution, 37° C., 20 hours, read-out: MIC
In short: as §1

[13] = test system: Acinetobacter calcoaceticus ATCC 15473; details: ATCC15473, ATCC 15473, agar two-fold dilution, 37° C., 20 hours, read-out: MIC
In short: as §1

[14] = test system: Bacillus cereus ATCC 11778; details: ATCC11778, ATCC 11778, agar two-fold dilution, 37° C., 20 hours, read-out: MIC
In short: as §1

[15] = test system: Pseudomonas aeruginosa ATCC 25619; details: ATCC25619, ATCC 25619, agar two-fold dilution, 37° C., 20 hours, read-out: MIC
In short: as §1

[16] = test system: Enterobacter aerogenes ATCC 29751; details: Klebsiella aerogenes, ATCC29751; ATCC 29751; agar two-fold dilution, 37° C., 20 hours; read-out: MIC
In short: as §1

[17] = test system: Salmonella typhimurium ATCC 14028; details: Salmonella enterica; ATCC 14028; agar two-fold dilution, 37° C., 20 hours; read-out: MIC
In short: as §1

[18] = test system: Enterobacter cloacae ATCC 27508; details: ATCC27508, ATCC 27508, agar two-fold dilution, 37° C., 20 hours, read-out: MIC
In short: as §1

[19] = test system: Micrococcus luteus ATCC 9341; details: ATCC9341, ATCC 9341, agar two-fold dilution, 37° C., 20 hours, read-out: MIC
In short: as §1

[20] = test system: Shigella sonnei ATCC 11060; details: ATCC11060, ATCC 11060, agar two-fold dilution, 37° C., 20 hours, read-out: MIC
In short: as §1

[21] = test system: Bacillus megaterium ATCC 9885; details: Priestia megaterium, ATCC9885; ATCC 9885; agar two-fold dilution, 37° C., 20 hours; read-out: MIC
In short: as §1

[22] = test system: Pseudomonas aeruginosa ATCC 27853; details: ATCC27853, ATCC 27853, agar two-fold dilution, 37° C., 20 hours, read-out: MIC
In short: as §1

[23] = test system: Staphylococcus epidermidis ATCC 12228; details: ATCC12228, ATCC 12228, agar two-fold dilution, 37° C., 20 hours, read-out: MIC
In short: as §1

[24] = test system: Escherichia coli ATCC 25922; details: ATCC25922, agar two-fold dilution, 37° C., 20 hours
In short: as §1

[25] = test system: Staphylococcus aureus ATCC 6538p; details: ATCC6538P, ATCC 6538p, agar two-fold dilution, 37° C., 20 hours, read-out: MIC
In short: as §1

SMILES | MIC [1] | MIC [2] | MIC [3] | MIC [4] | MIC [5] | MIC [6] | MIC [7] | MIC [8] | MIC [9] | MIC [10] | MIC [11] | MIC [12] | MIC [13] | MIC [14] | MIC [15] | MIC [16] | MIC [17] | MIC [18] | MIC [19] | MIC [20] | further results
CC(C)(O/N=C(\C(=O)NC1C(=O)N2C(C(=O)[O-])=C(CSc3nc(N)cc(N)[n+]3C3CC3)CSC12)c1csc(N)n1)C(=O)O (stereo not drawn) [Compound I-48] | 0.13 µg/mL (≈ 0.2 µM) | ≤ 8 ng/mL | 4 µg/mL (≈ 6.16 µM) | ≤ 8 ng/mL | 0.13 µg/mL (≈ 0.2 µM) | 0.13 µg/mL (≈ 0.2 µM) | > 128 µg/mL | 0.063 µg/mL (≈ 0.097 µM) | 0.25 µg/mL (≈ 0.385 µM) | 0.063 µg/mL (≈ 0.097 µM) | 0.063 µg/mL (≈ 0.097 µM) | 4 µg/mL (≈ 6.16 µM) | 4 µg/mL (≈ 6.16 µM) | 64 µg/mL (≈ 98.5 µM) | 2 µg/mL (≈ 3.08 µM) | 2 µg/mL (≈ 3.08 µM) | 0.5 µg/mL (≈ 0.77 µM) | 0.031 µg/mL (≈ 0.0477 µM) | 0.5 µg/mL (≈ 0.77 µM) | 0.13 µg/mL (≈ 0.2 µM) | MIC [21]: 0.5 µg/mL (≈ 0.77 µM); MIC [22]: 2 µg/mL (≈ 3.08 µM); MIC [23]: 2 µg/mL (≈ 3.08 µM); MIC [24]: 0.13 µg/mL (≈ 0.2 µM); MIC [25]: 4 µg/mL (≈ 6.16 µM)
C=CCO/N=C(\C(=O)NC1C(=O)N2C(C(=O)[O-])=C(CSc3nc(N)cc(N)[n+]3C)CSC12)c1csc(N)n1 (stereo not drawn) [Compound I-49] | 0.5 µg/mL (≈ 0.866 µM) | ≤ 8 ng/mL | 16 µg/mL (≈ 27.7 µM) | ≤ 8 ng/mL | 0.25 µg/mL (≈ 0.433 µM) | 0.25 µg/mL (≈ 0.433 µM) | 16 µg/mL (≈ 27.7 µM) | 0.063 µg/mL (≈ 0.109 µM) | 0.5 µg/mL (≈ 0.866 µM) | 0.5 µg/mL (≈ 0.866 µM) | 0.016 µg/mL (≈ 0.0277 µM) | 0.25 µg/mL (≈ 0.433 µM) | 8 µg/mL (≈ 13.8 µM) | 32 µg/mL (≈ 55.4 µM) | 1 µg/mL (≈ 1.73 µM) | 1 µg/mL (≈ 1.73 µM) | 1 µg/mL (≈ 1.73 µM) | 0.031 µg/mL (≈ 0.0537 µM) | 0.031 µg/mL (≈ 0.0537 µM) | 0.25 µg/mL (≈ 0.433 µM) | MIC [21]: 0.25 µg/mL (≈ 0.433 µM); MIC [22]: 8 µg/mL (≈ 13.8 µM); MIC [23]: 0.13 µg/mL (≈ 0.225 µM); MIC [24]: 0.25 µg/mL (≈ 0.433 µM); MIC [25]: 0.25 µg/mL (≈ 0.433 µM)
C=CCO/N=C(\C(=O)NC1C(=O)N2C(C(=O)[O-])=C(CSc3nc(N)cc(N)[n+]3CC)CSC12)c1csc(N)n1 (stereo not drawn) [Compound I-50] | 0.25 µg/mL (≈ 0.423 µM) | ≤ 8 ng/mL | 4 µg/mL (≈ 6.76 µM) | ≤ 8 ng/mL | 0.13 µg/mL (≈ 0.22 µM) | 0.13 µg/mL (≈ 0.22 µM) | 8 µg/mL (≈ 13.5 µM) | 0.031 µg/mL (≈ 0.0524 µM) | 0.25 µg/mL (≈ 0.423 µM) | 0.25 µg/mL (≈ 0.423 µM) | ≤ 0.008 µg/mL | 0.13 µg/mL (≈ 0.22 µM) | 4 µg/mL (≈ 6.76 µM) | 8 µg/mL (≈ 13.5 µM) | 1 µg/mL (≈ 1.69 µM) | 0.5 µg/mL (≈ 0.845 µM) | 0.5 µg/mL (≈ 0.845 µM) | 0.016 µg/mL (≈ 0.027 µM) | ≤ 0.008 µg/mL | 0.13 µg/mL (≈ 0.22 µM) | MIC [21]: 0.13 µg/mL (≈ 0.22 µM); MIC [22]: 4 µg/mL (≈ 6.76 µM); MIC [23]: 0.063 µg/mL (≈ 0.106 µM); MIC [24]: 0.13 µg/mL (≈ 0.22 µM); MIC [25]: 0.13 µg/mL (≈ 0.22 µM)
